Measurements reported in the supplement of paper PMC10307832.

Assays:
Experiment in all cases: relative viability (nuclei count vs DMSO), 5 days (fraction); higher = more cells survive
NCI-H322M = tested on: NCI-H322M
In short: (§1)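 Relative viability divides the nuclei count in treated wells by that in vehicle wells. Lung cancer cell lines were seeded in 1536-well plates, dosed by pin tool the next day, and fixed and stained after 5 days in one step with final 0.05% Triton X-100, 1% formaldehyde and 1 ug/ml Hoechst. Dosing was a single drug or a fixed anchor-drug dose plus five library-drug doses (not always all listed) in √10 steps, and values are medians of duplicate plates imaged at 4×.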

NCI-H522 = tested on: NCI-H522
In short: as §1

NCI-H1755 = tested on: NCI-H1755
In short: as §1

RERF-LC-KJ = tested on: RERF-LC-KJ
In short: as §1

SW 900 = tested on: SW 900
In short: as §1

NCI-H520 = tested on: NCI-H520
In short: as §1

NCI-H3122 = tested on: NCI-H3122
In short: as §1

LXF-289 = tested on: LXF-289
In short: as §1

NCI-H441 = tested on: NCI-H441
In short: as §1

LCLC-103H = tested on: LCLC-103H
In short: as §1

NCI-H1355 = tested on: NCI-H1355
In short: as §1

NCI-H1792 = tested on: NCI-H1792
In short: as §1

NCI-H1651 = tested on: NCI-H1651
In short: as §1

NCI-H2347 = tested on: NCI-H2347
In short: as §1

NCI-H460 = tested on: NCI-H460
In short: as §1

NCI-H661 = tested on: NCI-H661
In short: as §1

NCI-H727 = tested on: NCI-H727
In short: as §1

NCI-H596 = tested on: NCI-H596
In short: as §1

NCI-H1915 = tested on: NCI-H1915
In short: as §1

PC-14 = tested on: PC-14
In short: as §1

SK-MES-1 = tested on: SK-MES-1
In short: as §1

`CC(=O)O[C@@]12CO[C@@H]1C[C@H](O)[C@@]1(C)C(=O)[C@H](O)C3=C(C)[C@@H](OC(=O)[C@H](O)[C@@H](NC(=O)OC(C)(C)C)c4ccccc4)C[C@@](O)([C@@H](OC(=O)c4ccccc4)[C@H]21)C3(C)C` [Docetaxel] + O=C(c1cc(Cc2n[nH]c(=O)c3ccccc23)ccc1F)N1CCN(C(=O)C2CC2)CC1 [Olaparib] (partner 8 µM) was tested. Which relative viability (NCI-H322M; first compound 0.0002 µM) did it give?
The relative viability was 0.777.

And the relative viability (NCI-H322M; first compound 0.000632 µM)?
The relative viability was 0.797.

What about the relative viability (NCI-H322M; first compound 0.002 µM) of the same compound?
Its relative viability is 0.721.

And the relative viability (NCI-H322M; first compound 0.006325 µM)?
Its relative viability is 0.679.

What about the relative viability (NCI-H322M; first compound 0.02 µM) of the same compound?
Its relative viability is 0.525.

And the relative viability (NCI-H522; first compound 0.0002 µM)?
Its relative viability is 0.653.

What about the relative viability (NCI-H522; first compound 0.000632 µM) of the same compound?
Its relative viability is 0.459.

What about the relative viability (NCI-H522; first compound 0.002 µM) of the same compound?
Its relative viability is 0.532.

What about the relative viability (NCI-H522; first compound 0.006325 µM) of the same compound?
Its relative viability is 0.499.

What about the relative viability (NCI-H522; first compound 0.02 µM) of the same compound?
The relative viability was 0.377.

And the relative viability (NCI-H1755; first compound 0.0002 µM)?
Its relative viability is 0.87.

And the relative viability (NCI-H1755; first compound 0.000632 µM)?
The relative viability was 0.729.

What about the relative viability (NCI-H1755; first compound 0.002 µM) of the same compound?
The relative viability was 0.578.

What about the relative viability (NCI-H1755; first compound 0.006325 µM) of the same compound?
Its relative viability is 0.417.

And the relative viability (NCI-H1755; first compound 0.02 µM)?
Its relative viability is 0.377.

What about the relative viability (RERF-LC-KJ; first compound 0.0002 µM) of the same compound?
Its relative viability is 0.793.

And the relative viability (RERF-LC-KJ; first compound 0.000632 µM)?
The relative viability was 0.608.

And the relative viability (RERF-LC-KJ; first compound 0.002 µM)?
The relative viability was 0.281.

And the relative viability (RERF-LC-KJ; first compound 0.02 µM)?
The relative viability was 0.172.

And the relative viability (SW 900; first compound 0.0002 µM)?
The relative viability was 0.817.

What about the relative viability (SW 900; first compound 0.000632 µM) of the same compound?
The relative viability was 0.353.

What about the relative viability (SW 900; first compound 0.002 µM) of the same compound?
Its relative viability is 0.281.

And the relative viability (SW 900; first compound 0.006325 µM)?
The relative viability was 0.266.

And the relative viability (SW 900; first compound 0.02 µM)?
The relative viability was 0.172.

And the relative viability (NCI-H520; first compound 0.0002 µM)?
The relative viability was 0.31.

And the relative viability (NCI-H520; first compound 0.000632 µM)?
The relative viability was 0.286.

What about the relative viability (NCI-H520; first compound 0.002 µM) of the same compound?
The relative viability was 0.22.

What about the relative viability (NCI-H520; first compound 0.006325 µM) of the same compound?
The relative viability was 0.165.

And the relative viability (NCI-H520; first compound 0.02 µM)?
Its relative viability is 0.132.

And the relative viability (NCI-H3122; first compound 0.0002 µM)?
The relative viability was 0.658.

And the relative viability (NCI-H3122; first compound 0.000632 µM)?
Its relative viability is 0.623.

What about the relative viability (NCI-H3122; first compound 0.002 µM) of the same compound?
Its relative viability is 0.521.

What about the relative viability (NCI-H3122; first compound 0.006325 µM) of the same compound?
Its relative viability is 0.202.

And the relative viability (NCI-H3122; first compound 0.02 µM)?
Its relative viability is 0.129.

What about the relative viability (LXF-289; first compound 0.0002 µM) of the same compound?
Its relative viability is 1.06.

And the relative viability (LXF-289; first compound 0.000632 µM)?
Its relative viability is 0.393.

And the relative viability (LXF-289; first compound 0.002 µM)?
Its relative viability is 0.195.

And the relative viability (LXF-289; first compound 0.006325 µM)?
Its relative viability is 0.111.

And the relative viability (LXF-289; first compound 0.02 µM)?
The relative viability was 0.0839.

What about the relative viability (NCI-H441; first compound 0.0002 µM) of the same compound?
The relative viability was 0.446.

And the relative viability (NCI-H441; first compound 0.000632 µM)?
The relative viability was 0.324.

What about the relative viability (NCI-H441; first compound 0.002 µM) of the same compound?
Its relative viability is 0.223.

And the relative viability (NCI-H441; first compound 0.006325 µM)?
The relative viability was 0.158.

And the relative viability (NCI-H441; first compound 0.02 µM)?
The relative viability was 0.161.

What about the relative viability (LCLC-103H; first compound 0.0002 µM) of the same compound?
The relative viability was 0.744.

What about the relative viability (LCLC-103H; first compound 0.000632 µM) of the same compound?
The relative viability was 0.803.

And the relative viability (LCLC-103H; first compound 0.002 µM)?
Its relative viability is 0.748.

And the relative viability (LCLC-103H; first compound 0.006325 µM)?
Its relative viability is 0.643.

What about the relative viability (LCLC-103H; first compound 0.02 µM) of the same compound?
The relative viability was 0.481.

And the relative viability (NCI-H1355; first compound 0.0002 µM)?
Its relative viability is 0.732.

And the relative viability (NCI-H1355; first compound 0.000632 µM)?
The relative viability was 0.533.

What about the relative viability (NCI-H1355; first compound 0.002 µM) of the same compound?
Its relative viability is 0.353.

And the relative viability (NCI-H1355; first compound 0.006325 µM)?
Its relative viability is 0.203.

And the relative viability (NCI-H1355; first compound 0.02 µM)?
Its relative viability is 0.164.

What about the relative viability (NCI-H1792; first compound 0.0002 µM) of the same compound?
The relative viability was 0.281.

And the relative viability (NCI-H1792; first compound 0.000632 µM)?
Its relative viability is 0.306.

And the relative viability (NCI-H1792; first compound 0.002 µM)?
The relative viability was 0.0724.

And the relative viability (NCI-H1792; first compound 0.006325 µM)?
Its relative viability is 0.0761.

What about the relative viability (NCI-H1792; first compound 0.02 µM) of the same compound?
The relative viability was 0.0428.

What about the relative viability (NCI-H1651; first compound 0.0002 µM) of the same compound?
Its relative viability is 0.188.

What about the relative viability (NCI-H1651; first compound 0.000632 µM) of the same compound?
Its relative viability is 0.206.

What about the relative viability (NCI-H1651; first compound 0.002 µM) of the same compound?
Its relative viability is 0.177.

What about the relative viability (NCI-H1651; first compound 0.006325 µM) of the same compound?
Its relative viability is 0.137.

What about the relative viability (NCI-H2347; first compound 0.0002 µM) of the same compound?
Its relative viability is 0.613.

What about the relative viability (NCI-H2347; first compound 0.000632 µM) of the same compound?
Its relative viability is 0.566.

What about the relative viability (NCI-H2347; first compound 0.002 µM) of the same compound?
Its relative viability is 0.557.

And the relative viability (NCI-H2347; first compound 0.006325 µM)?
Its relative viability is 0.505.

What about the relative viability (NCI-H2347; first compound 0.02 µM) of the same compound?
Its relative viability is 0.388.

What about the relative viability (NCI-H460; first compound 0.0002 µM) of the same compound?
The relative viability was 0.373.

What about the relative viability (NCI-H460; first compound 0.000632 µM) of the same compound?
Its relative viability is 0.31.

What about the relative viability (NCI-H460; first compound 0.002 µM) of the same compound?
Its relative viability is 0.0608.

What about the relative viability (NCI-H460; first compound 0.006325 µM) of the same compound?
Its relative viability is 0.0428.

What about the relative viability (NCI-H460; first compound 0.02 µM) of the same compound?
The relative viability was 0.0276.

What about the relative viability (NCI-H661; first compound 0.0002 µM) of the same compound?
The relative viability was 0.738.

And the relative viability (NCI-H661; first compound 0.000632 µM)?
Its relative viability is 0.701.

What about the relative viability (NCI-H661; first compound 0.002 µM) of the same compound?
The relative viability was 0.592.

And the relative viability (NCI-H661; first compound 0.006325 µM)?
Its relative viability is 0.434.

What about the relative viability (NCI-H661; first compound 0.02 µM) of the same compound?
Its relative viability is 0.406.

What about the relative viability (NCI-H727; first compound 0.0002 µM) of the same compound?
Its relative viability is 0.664.

What about the relative viability (NCI-H727; first compound 0.000632 µM) of the same compound?
Its relative viability is 0.526.

What about the relative viability (NCI-H727; first compound 0.002 µM) of the same compound?
Its relative viability is 0.682.

And the relative viability (NCI-H727; first compound 0.006325 µM)?
Its relative viability is 0.645.

What about the relative viability (NCI-H727; first compound 0.02 µM) of the same compound?
Its relative viability is 0.524.

And the relative viability (NCI-H596; first compound 0.0002 µM)?
Its relative viability is 0.685.

And the relative viability (NCI-H596; first compound 0.000632 µM)?
Its relative viability is 0.83.

And the relative viability (NCI-H596; first compound 0.002 µM)?
The relative viability was 0.638.

What about the relative viability (NCI-H596; first compound 0.006325 µM) of the same compound?
The relative viability was 0.418.

And the relative viability (NCI-H596; first compound 0.02 µM)?
The relative viability was 0.338.

And the relative viability (NCI-H1915; first compound 0.0002 µM)?
The relative viability was 0.278.

What about the relative viability (NCI-H1915; first compound 0.000632 µM) of the same compound?
The relative viability was 0.256.

And the relative viability (NCI-H1915; first compound 0.002 µM)?
The relative viability was 0.179.

What about the relative viability (NCI-H1915; first compound 0.006325 µM) of the same compound?
Its relative viability is 0.144.

And the relative viability (NCI-H1915; first compound 0.02 µM)?
The relative viability was 0.0963.

What about the relative viability (PC-14; first compound 0.0002 µM) of the same compound?
Its relative viability is 0.276.

And the relative viability (PC-14; first compound 0.000632 µM)?
Its relative viability is 0.164.

And the relative viability (PC-14; first compound 0.002 µM)?
The relative viability was 0.0642.

And the relative viability (PC-14; first compound 0.006325 µM)?
Its relative viability is 0.0438.

And the relative viability (PC-14; first compound 0.02 µM)?
The relative viability was 0.0274.

What about the relative viability (SK-MES-1; first compound 0.0002 µM) of the same compound?
The relative viability was 0.719.

What about the relative viability (SK-MES-1; first compound 0.000632 µM) of the same compound?
The relative viability was 0.405.

What about the relative viability (SK-MES-1; first compound 0.002 µM) of the same compound?
Its relative viability is 0.354.

And the relative viability (SK-MES-1; first compound 0.02 µM)?
The relative viability was 0.145.
